Test system: KRAS-mutant PDC multicell tumor spheroid viability
Test: Anticancer human tumor 521955-158-R2-J5-PDC patient-derived pancreatic carcinoma cell line growth inhibition [KRAS2]
Details: for IC50: curve of first compound; for viability, T/C: stronger effect = lower value
In short: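 KRAS-mutant tumor cells were grown as spheroids with HUVEC endothelial cells and human MSCs as stroma. Targeted agents were tested alone and with KRAS pathway inhibitors. Doses started at or near clinical Cmax, or 10 microM, descending half-log.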

[1] = second compound 0.1 µM, first compound 0.0316 µM
[2] = second compound 0.1 µM, first compound 0.1 µM
[3] = second compound 0.1 µM, first compound 0.316 µM
[4] = second compound 0.1 µM, first compound 1 µM
[5] = second compound 0.1 µM, first compound 3.16 µM
[6] = second compound 0.1 µM, first compound 10 µM
[7] = second compound 0.316 µM, first compound 0.0316 µM
[8] = second compound 0.316 µM, first compound 0.1 µM
[9] = second compound 0.316 µM, first compound 0.316 µM
[10] = second compound 0.316 µM, first compound 1 µM
[11] = second compound 0.316 µM, first compound 3.16 µM
[12] = second compound 0.316 µM, first compound 10 µM
[13] = second compound 1 µM, first compound 0.0316 µM
[14] = second compound 1 µM, first compound 0.1 µM
[15] = second compound 1 µM, first compound 0.316 µM
[16] = second compound 1 µM, first compound 1 µM
[17] = second compound 1 µM, first compound 3.16 µM
[18] = second compound 1 µM, first compound 10 µM
[19] = second compound 3.16 µM, first compound 0.0316 µM
[20] = second compound 3.16 µM, first compound 0.1 µM
[21] = second compound 3.16 µM, first compound 0.316 µM
[22] = second compound 3.16 µM, first compound 1 µM
[23] = second compound 3.16 µM, first compound 3.16 µM
[24] = second compound 3.16 µM, first compound 10 µM
[25] = second compound 10 µM, first compound 0.0316 µM
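Also: viability read after seven days of drug exposure.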

Q: Which results are given for `CC1(C)CCC(CN2CCN(c3ccc(C(=O)NS(=O)(=O)c4ccc(NCC5CCOCC5)c([N+](=O)[O-])c4)c(Oc4cnc5[nH]ccc5c4)c3)CC2)=C(c2ccc(Cl)cc2)C1` + COc1cc2nc(C)nc(NC(C)c3cc(N)cc(C(F)(F)F)c3)c2cc1OC1CCOC1?
A: IC50 (second compound 0.1 µM): 6.34 µM; IC50 (second compound 0.316 µM): 5.02 µM; IC50 (second compound 1 µM): 3.65 µM; IC50 (second compound 3.16 µM): 2 µM; IC50 (second compound 10 µM): 0.391 µM; viability, T/C [1]: 74.8%; viability, T/C [2]: 82.6%; viability, T/C [3]: 92.4%; viability, T/C [4]: 93.3%; viability, T/C [5]: 82.9%; viability, T/C [6]: 28.2%; viability, T/C [7]: 74.5%; viability, T/C [8]: 82.8%; viability, T/C [9]: 86%; viability, T/C [10]: 80.5%; viability, T/C [11]: 70.9%; viability, T/C [12]: 18.8%; viability, T/C [13]: 71.9%; viability, T/C [14]: 78.2%; viability, T/C [15]: 82.6%; viability, T/C [16]: 81.3%; viability, T/C [17]: 55.7%; viability, T/C [18]: 10.8%; viability, T/C [19]: 81%; viability, T/C [20]: 82.4%; viability, T/C [21]: 86.1%; viability, T/C [22]: 80%; viability, T/C [23]: 30.2%; viability, T/C [24]: 12.2%; viability, T/C [25]: 55.7%; viability, T/C (second compound 10 µM, first compound 0.1 µM): 52.6%; viability, T/C (second compound 10 µM, first compound 0.316 µM): 51.3%; viability, T/C (second compound 10 µM, first compound 1 µM): 36.8%; viability, T/C (second compound 10 µM, first compound 3.16 µM): 2.22%; viability, T/C (second compound 10 µM, first compound 10 µM): 1.29%

Q: With `CC1OCC2(CCN(c3cnc(Sc4ccnc(N)c4Cl)c(N)n3)CC2)C1N` (stereo not given) + C=CC(=O)N1CCN(c2nc(OCC3CCCN3C)nc3c2CCN(c2cccc4cccc(C)c24)C3)CC1CC#N as the compound, how does the IC50 (second compound 0.0316 µM) read?
A: > 10 µM

Q: What about the IC50 (second compound 0.1 µM) of the same compound?
A: > 10 µM

Q: What about the IC50 (second compound 0.316 µM) of the same compound?
A: > 10 µM

Q: What about the IC50 (second compound 1 µM) of the same compound?
A: > 10 µM

Q: And the IC50 (second compound 3.16 µM)?
A: < 0.0316 µM

Q: What about the viability, T/C (second compound 0.0316 µM, first compound 0.0316 µM) of the same compound?
A: 92.9%

Q: And the viability, T/C (second compound 0.0316 µM, first compound 0.1 µM)?
A: 79%

Q: What about the viability, T/C (second compound 0.0316 µM, first compound 0.316 µM) of the same compound?
A: 75.2%

Q: And the viability, T/C (second compound 0.0316 µM, first compound 1 µM)?
A: 63.5%

Q: And the viability, T/C (second compound 0.0316 µM, first compound 3.16 µM)?
A: 60%

Q: And the viability, T/C (second compound 0.0316 µM, first compound 10 µM)?
A: 70.8%

Q: And the viability, T/C [1]?
A: 99.8%

Q: And the viability, T/C [2]?
A: 88.1%

Q: And the viability, T/C [3]?
A: 74.5%

Q: And the viability, T/C [4]?
A: 68.6%

Q: What about the viability, T/C [5] of the same compound?
A: 63.3%

Q: And the viability, T/C [6]?
A: 66.6%

Q: What about the viability, T/C [7] of the same compound?
A: 84.5%

Q: And the viability, T/C [8]?
A: 84.4%

Q: And the viability, T/C [9]?
A: 65.4%

Q: And the viability, T/C [10]?
A: 59.2%

Q: What about the viability, T/C [11] of the same compound?
A: 65.9%

Q: What about the viability, T/C [12] of the same compound?
A: 58.4%

Q: What about the viability, T/C [13] of the same compound?
A: 84.8%

Q: And the viability, T/C [14]?
A: 70.7%

Q: And the viability, T/C [15]?
A: 59.2%

Q: And the viability, T/C [16]?
A: 56.9%

Q: What about the viability, T/C [17] of the same compound?
A: 57.4%

Q: And the viability, T/C [18]?
A: 55.5%

Q: And the viability, T/C [19]?
A: 15.1%

Q: And the viability, T/C [20]?
A: 13.1%

Q: What about the viability, T/C [21] of the same compound?
A: 15.4%

Q: What about the viability, T/C [22] of the same compound?
A: 13%

Q: And the viability, T/C [23]?
A: 5.45%

Q: What about the viability, T/C [24] of the same compound?
A: 5.43%

Q: For `CC(=O)Nc1cccc(-n2c(=O)n(C3CC3)c(=O)c3c(Nc4ccc(I)cc4F)n(C)c(=O)c(C)c32)c1` + CC1OCC2(CCN(c3cnc(Sc4ccnc(N)c4Cl)c(N)n3)CC2)C1N, which IC50 (second compound 0.1 µM) is on record?
A: 0.000146 µM

Q: What about the IC50 (second compound 0.316 µM) of the same compound?
A: < 0.0001 µM

Q: What about the IC50 (second compound 1 µM) of the same compound?
A: < 0.0001 µM

Q: What about the IC50 (second compound 3.16 µM) of the same compound?
A: < 0.0001 µM

Q: What about the IC50 (second compound 10 µM) of the same compound?
A: < 0.0001 µM

Q: What about the viability, T/C (second compound 0.1 µM, first compound 0.0001 µM) of the same compound?
A: 59%

Q: What about the viability, T/C (second compound 0.1 µM, first compound 0.000316 µM) of the same compound?
A: 29.4%

Q: And the viability, T/C (second compound 0.1 µM, first compound 0.001 µM)?
A: 29.3%

Q: What about the viability, T/C (second compound 0.1 µM, first compound 0.00316 µM) of the same compound?
A: 25.3%

Q: And the viability, T/C (second compound 0.1 µM, first compound 0.01 µM)?
A: 21.4%

Q: And the viability, T/C [1]?
A: 13.1%

Q: And the viability, T/C (second compound 0.316 µM, first compound 0.0001 µM)?
A: 44.9%

Q: And the viability, T/C (second compound 0.316 µM, first compound 0.000316 µM)?
A: 32.9%

Q: What about the viability, T/C (second compound 0.316 µM, first compound 0.001 µM) of the same compound?
A: 25.4%

Q: And the viability, T/C (second compound 0.316 µM, first compound 0.00316 µM)?
A: 22.7%

Q: And the viability, T/C (second compound 0.316 µM, first compound 0.01 µM)?
A: 18.1%

Q: And the viability, T/C [7]?
A: 12.4%

Q: And the viability, T/C (second compound 1 µM, first compound 0.0001 µM)?
A: 40.3%

Q: And the viability, T/C (second compound 1 µM, first compound 0.000316 µM)?
A: 35.8%

Q: What about the viability, T/C (second compound 1 µM, first compound 0.001 µM) of the same compound?
A: 26.9%

Q: And the viability, T/C (second compound 1 µM, first compound 0.00316 µM)?
A: 24.2%

Q: What about the viability, T/C (second compound 1 µM, first compound 0.01 µM) of the same compound?
A: 16.8%

Q: And the viability, T/C [13]?
A: 9.6%

Q: What about the viability, T/C (second compound 3.16 µM, first compound 0.0001 µM) of the same compound?
A: 40.9%

Q: What about the viability, T/C (second compound 3.16 µM, first compound 0.000316 µM) of the same compound?
A: 32.5%

Q: What about the viability, T/C (second compound 3.16 µM, first compound 0.001 µM) of the same compound?
A: 25.2%

Q: And the viability, T/C (second compound 3.16 µM, first compound 0.00316 µM)?
A: 21.1%

Q: What about the viability, T/C (second compound 3.16 µM, first compound 0.01 µM) of the same compound?
A: 15.3%

Q: And the viability, T/C [19]?
A: 12.7%

Q: And the viability, T/C (second compound 10 µM, first compound 0.0001 µM)?
A: 39.9%

Q: What about the viability, T/C (second compound 10 µM, first compound 0.000316 µM) of the same compound?
A: 34%

Q: And the viability, T/C (second compound 10 µM, first compound 0.001 µM)?
A: 23.3%

Q: What about the viability, T/C (second compound 10 µM, first compound 0.00316 µM) of the same compound?
A: 18.5%

Q: And the viability, T/C (second compound 10 µM, first compound 0.01 µM)?
A: 15.1%

Q: What about the viability, T/C [25] of the same compound?
A: 11.6%

— PubChem BioAssay AID1963871 (Molecular Pharmacology Branch, DTP, NCI, 2024)
